Laboratory results reported in paper PMC3387161, “Small Molecules Targeted to a Non-Catalytic “RVxF” Binding Site of Protein Phosphatase-1 Inhibit HIV-1” (PLoS ONE, 2012).

Columns and labels:
[1] = tested on: interaction of Tat with PP1α; format: cell-based, human
[2] = tested on: HIV-1 LTR-Lac Z reporter in 293T cells; assay: HIV-1 LTR-directed transcription in 293T cells transfected with Tat vector and HIV-1 LTR-LacZ reporter; format: cell-based; settings: Human immunodeficiency virus 1, HEK-293T, read-out: IC50 for inhibition of HIV-1 LTR-directed transcription in 293T cells
recombinant PP1α = biological target: T1, recombinant PP1α (Oryctolagus cuniculus, UniProt P62139); assay: Malachite green dephosphorylation of generic KT(pT)IRR peptide by PP1α; format: biochemical; settings: 1H4 300 µM, KT(pT)IRR 3 µM; control 1.4
T1 construct: purchased New England Biolabs, Ipswich, MA
Description: To determine whether 1H4 has an effect on the enzymatic activity of PP1, we used recombinant PP1α and a generic substrate, phosphorylated KT(pT)IRR peptide which is recognized equally well by PP1 and PP2A [13]. The KT(pT)IRR peptide (3 µM) was efficiently dephosphorylated by PP1α (Fig. 6A, V0 = 1.4 µM·min^−1). […] We further investigated the effect of 1H4 on PP1 enzymatic activity by analyzing the initial velocity versus KT(pT)IRR peptide substrate concentration plots in the absence and presence of 1H4 that were approximated by Michaelis-Menten equation (Fig. 6B) and also visualized in Lineweaver-Burk representation (Fig. 6C).
Figure 6 1H4 has no effect on PP1 enzymatic activity. […] The amount of released phosphate was quantified by the absorbance and phosphate concentration was recalculated using standards. Initial velocity was calculated by linear regression in Prism. […] The amount of released phosphate was quantified with malachite green. The VMAX and Km were calculated by non-linear regression analysis for Michaelis-Menten equation in Prism. […]
Inhibition data were analyzed using GraphPad Prism 4 software (GraphPad Software, La Jolla, CA). The IC50 values were determined from a sigmoidal dose-response (variable slope) curve using four parameter logistic equation Y = Bottom+(Top-Bottom)/([…]). […]

[3] = Trypan blue exclusion viability assay in CEM cells; format: cell-based; settings: human, read-out: Cytotoxicity IC50 in CEM cells by trypan blue exclusion
293T cells = assay: Cellular proteome analysis by mass spectrometry in 293T cells; format: cell-based, human; settings: 10 µM, 18 h, 28 proteins with highest SEQUEST scores
Description: To determine if 1H4 has a negative effect on protein expression profiles, we analyzed the global cellular proteome by mass spectrometry. Protein expression was analyzed in 293T cells untreated or treated with 1H4 as described in Materials and Methods. We detected expression of 1722 proteins in the untreated sample and 1739 proteins in the 1H4-treated sample (not shown).
Samples were separated by reversed-phase liquid chromatography (HPLC), using micro-capillary column C18, coupled in line with nanospray and tandem mass spectrometer Thermo LTQ Orbitrap XL. The LC gradient was run for 60 min from 2% to 30% of acetonitrile containing 0.1% formic acid at flow rate 400 nL/min. In single measurement block we performed 1 FT MS scan and 3 data dependent FT MS/MS scans on major multi-charged MS peaks with resolution 30000. The normalized collision-induced dissociation (CID) energy was 35%. The MS/MS spectra were compared against those in the NCBI human protein database. Proteins that were not present in the database, i.e. recombinant Flag-Tat, were manually added to the database. Only peptides having X-correlation (X corr) cutoffs of 1.9 for [M +2H]^2+, 2.3 for [M +3H]^3+ and higher charge state were considered. […]
As a negative control untreated cells were used. […] The MS-MS data were analyzed by SEQUEST.

[4] = biological target: PP1 association with Tat, NIPP1 and PNUTS (Homo sapiens, UniProt P62136); format: cell-based; settings: Tat-transfected 293T cells, LC-MS peak amplitude
Chain of PP1 association with Tat, NIPP1 and PNUTS (P62136 2-330): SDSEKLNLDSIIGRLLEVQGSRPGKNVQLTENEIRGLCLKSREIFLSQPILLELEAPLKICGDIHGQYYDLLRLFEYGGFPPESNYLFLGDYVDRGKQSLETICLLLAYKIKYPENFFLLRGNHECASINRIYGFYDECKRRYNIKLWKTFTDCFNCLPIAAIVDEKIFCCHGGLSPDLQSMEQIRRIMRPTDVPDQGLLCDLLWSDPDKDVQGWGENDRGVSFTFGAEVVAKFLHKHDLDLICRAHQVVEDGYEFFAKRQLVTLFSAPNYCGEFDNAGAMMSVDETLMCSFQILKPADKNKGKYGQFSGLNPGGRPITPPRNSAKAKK

T1 sequence (P62139 whole entry): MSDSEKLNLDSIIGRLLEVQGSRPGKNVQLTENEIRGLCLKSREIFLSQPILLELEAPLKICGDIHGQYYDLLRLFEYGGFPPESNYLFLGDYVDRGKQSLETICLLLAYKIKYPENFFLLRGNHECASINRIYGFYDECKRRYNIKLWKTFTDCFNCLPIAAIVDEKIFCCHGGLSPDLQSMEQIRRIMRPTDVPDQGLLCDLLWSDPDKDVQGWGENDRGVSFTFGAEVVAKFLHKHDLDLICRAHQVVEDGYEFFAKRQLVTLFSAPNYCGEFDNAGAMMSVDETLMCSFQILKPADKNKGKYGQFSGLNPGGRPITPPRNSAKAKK

COCCNC(=O)COC(=O)c1c2c(nc3ccccc13)/C(=C/c1ccc(O)cc1)CCC2 [1H4]
Association of Tat with CDK9/cyclin T1 [1]: no effect on the association of Tat with CDK9/cyclin T1 | PP1α co-precipitation with Flag-Tat [1]: reduced the amount of PP1α-EGFP that co-precipitated with Tat | IC50 [2]: 5 µM | V0 of KT(pT)IRR peptide dephosphorylation by PP1α in presence of compound (recombinant PP1α): 1.3 µM·min^-1 | IC50 at 24 h [3]: > 100 µM | Effect on cellular proteome (293T cells): did not significantly change the cellular proteome | Interaction of PP1 with PNUTS and NIPP1 [4]: without any effect on the interaction of PP1 with PNUTS or NIPP1 | Tat association with PP1 (microcystin precipitation) [4]: Tat association was reduced
